Measurements as given in patent publication EP2197883B1, “Catecholamine derivative useful for the treatment of parkinson's disease” (H. Lundbeck A/S, priority 2007, dated 2009).

How the values were obtained:
[1] = man, after oral dosing; cited from earlier work
PD patients = settings: intravenous (IV); cited from earlier work
[2] = tested on: mouse model of severe dopamine depletion; assay: Superiority model; format: in vivo; settings: mice
From the text: Both Apomorphine and L-DOPA stimulate D1 and D2-like dopamine receptors.

For `CCCc1cc2c(s1)CN[C@@H]1CCc3cc(OC(C)=O)c(OC(C)=O)cc3[C@@H]21` [Adrogolide], the oral bioavailability [1] is given as ~4% and the antiparkinson efficacy (PD patients) is given as “comparable to that of L-DOPA”.
For `N[C@@H](Cc1ccc(O)c(O)c1)C(=O)O` [L-DOPA, (levo)-3,4-dihydroxy phenylalanine], the “reversal of motility deficits / restoration of locomotion” value [2] was “able to reverse motility deficits”.
With `CN1CCc2cccc3c2[C@H]1Cc1ccc(O)c(O)c1-3` [Apomorphine] the “reversal of motility deficits / restoration of locomotion” value [2] was “able to reverse motility deficits”.
